Data: US10131652B2, “Pyrimidinyloxy benzene derivatives as herbicides” (E. I. DU PONT DE NEMOURS AND COMPANY, priority 2014, dated 2018)
Read-outs that look alike come from different tables or passages of the source.

Legend:
Type in all cases: in vivo
[1] = test system: barnyardgrass (Echinochloa crus-galli); experiment: Test D flooded paddy test plant response; settings: Flood (flooded paddy test), visual rating on scale 0 to 100 (0 no effect, 100 complete control), 13 to 15 days
Procedure, shortened: (§1)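 Plants at 2-leaf stage in pots flooded 3 cm above soil; compounds applied directly into paddy water, depth kept throughout. After 13-15 days in greenhouse, visual rating against controls on 0-100 scale (100 = complete control).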

[2] = test system: ducksalad (Heteranthera limosa); experiment: Test D flooded paddy test plant response; settings: Flood (flooded paddy test), visual rating on scale 0 to 100 (0 no effect, 100 complete control), 13 to 15 days
Procedure, shortened: as §1

rice (Oryza sativa) = experiment: Test D flooded paddy test plant response; settings: Flood (flooded paddy test), visual rating on scale 0 to 100 (0 no effect, 100 complete control), 13 to 15 days
Procedure, shortened: as §1

[3] = test system: small-flower umbrella sedge (Cyperus difformis); experiment: Test D flooded paddy test plant response; settings: Flood (flooded paddy test), visual rating on scale 0 to 100 (0 no effect, 100 complete control), 13 to 15 days
Procedure, shortened: as §1

[4] = test system: Italian ryegrass (Lolium multiflorum); experiment: Test F pre-/postemergence plant response; settings: Lolium multiflorum, scale 0 to 100, read-out: Plant response rating, Ryegrass, Italian; for pest or weed control at 16 g/ha: 16 g ai/ha; for pest or weed control at 31 g/ha: 31 g ai/ha; for pest or weed control at 125 g/ha: 125 g ai/ha
Procedure, shortened: (§2)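 Visual rating versus untreated controls, 0–100 scale (0 = no effect, 100 = complete control), taken 14–21 d after treatment in greenhouse. Pre: seeds planted in silt loam, soil treated. Post: plants 2–18 cm, 1–4 leaves. Compound formulated in non-phytotoxic solvent plus surfactant.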

[5] = test system: arrowleaf sida (Sida rhombifolia); experiment: Test F pre-/postemergence plant response; settings: Sida rhombifolia, scale 0 to 100, read-out: Plant response rating, Arrowleaf Sida
Procedure, shortened: as §2

[6] = test system: barnyardgrass (Echinochloa crus-galli); experiment: Test F pre-/postemergence plant response; settings: Echinochloa crus-galli, scale 0 to 100, read-out: Plant response rating, Barnyardgrass
Procedure, shortened: as §2

[7] = test system: hairy beggarticks (Bidens pilosa); experiment: Test F pre-/postemergence plant response; settings: Bidens pilosa, scale 0 to 100, read-out: Plant response rating, Beggarticks
Procedure, shortened: as §2

kochia (Kochia scoparia) = experiment: Test F pre-/postemergence plant response; settings: Bassia scoparia, scale 0 to 100, read-out: Plant response rating, Kochia; for pest or weed control at 16 g/ha: 16 g ai/ha; for pest or weed control at 31 g/ha: 31 g ai/ha; for pest or weed control at 125 g/ha: 125 g ai/ha
Procedure, shortened: as §2

[8] = test system: large (Lg) crabgrass (Digitaria sanguinalis); experiment: Test F pre-/postemergence plant response; settings: Digitaria sanguinalis, pre-emergence, scale 0 to 100, read-out: Plant response rating, Crabgrass, Large
Procedure, shortened: as §2

[9] = test system: nightshade (eastern black nightshade, Solanum ptycanthum); experiment: Test F pre-/postemergence plant response; settings: Solanum, pre-emergence, scale 0 to 100, read-out: Plant response rating, Nightshade
Procedure, shortened: as §2

[10] = test system: ragweed (common ragweed, Ambrosia elatior); experiment: Test F pre-/postemergence plant response; settings: Ambrosia artemisiifolia, scale 0 to 100, read-out: Plant response rating, Ragweed
Procedure, shortened: as §2

[11] = test system: surinam grass (Brachiaria decumbens); experiment: Test F pre-/postemergence plant response; settings: Urochloa decumbens, pre-emergence, scale 0 to 100, read-out: Plant response rating, Surinam Grass
Procedure, shortened: as §2

[12] = test system: velvetleaf (Abutilon theophrasti); experiment: Test F pre-/postemergence plant response; settings: Abutilon theophrasti, pre-emergence, scale 0 to 100, read-out: Plant response rating, Velvetleaf
Procedure, shortened: as §2

[13] = test system: yellow nutsedge (Cyperus esculentus); experiment: Test F pre-/postemergence plant response; settings: Cyperus, pre-emergence, scale 0 to 100, read-out: Plant response rating, Nutsedge, Yellow
Procedure, shortened: as §2

Horseweed = experiment: Test F postemergence plant response; settings: scale 0 to 100
[14] = post-emergence, 62 g ai/ha, Postemergence
[15] = post-emergence, 16 g ai/ha Postemergence
[16] = post-emergence, 31 g ai/ha Postemergence
[17] = post-emergence, 62 g ai/ha Postemergence
[18] = post-emergence, 125 g ai/ha Postemergence
[19] = pre-emergence, 16 g ai/ha Preemergence
[20] = pre-emergence, 31 g ai/ha Preemergence
[21] = pre-emergence, 62 g ai/ha Preemergence
[22] = pre-emergence, 125 g ai/ha Preemergence

## Fc1cccc(Oc2ncc(Br)cn2)c1-c1cc(C(F)F)no1 [Compound 145, 5-bromo-2-[2-[3-(difluoromethyl)-5-isoxazolyl]-3-fluorophenoxy]pyrimidine]
[1]; 31 g ai/ha
  Plant response rating, Barnyardgrass: 0
[1]; 62 g ai/ha
  Plant response rating, Barnyardgrass: 0
[1]; 125 g ai/ha
  Plant response rating, Barnyardgrass: 0
[1]; 250 g ai/ha
  Plant response rating, Barnyardgrass: 35
[2]; 31 g ai/ha
  Plant response rating, Ducksalad: 80
[2]; 62 g ai/ha
  Plant response rating, Ducksalad: 85
[2]; 125 g ai/ha
  Plant response rating, Ducksalad: 95
[2]; 250 g ai/ha
  Plant response rating, Ducksalad: 95
Rice (Oryza sativa); 31 g ai/ha
  Plant response rating, Rice: 0
Rice (Oryza sativa); 62 g ai/ha
  Plant response rating, Rice: 15
Rice (Oryza sativa); 125 g ai/ha
  Plant response rating, Rice: 15
Rice (Oryza sativa); 250 g ai/ha
  Plant response rating, Rice: 35
[3]; 31 g ai/ha
  Plant response rating, Sedge, Umbrella: 60
[3]; 62 g ai/ha
  Plant response rating, Sedge, Umbrella: 75
[3]; 125 g ai/ha
  Plant response rating, Sedge, Umbrella: 90
[3]; 250 g ai/ha
  Plant response rating, Sedge, Umbrella: 90
[4]; post-emergence, Postemergence
  pest or weed control at 16 g/ha: 10%
  pest or weed control at 31 g/ha: 5%
  pest or weed control at 125 g/ha: 15%
[4]; [14]
  pest or weed control at 62 g/ha: 10%
[4]; pre-emergence, Preemergence
  pest or weed control at 16 g/ha: 25%
  pest or weed control at 31 g/ha: 20%
  pest or weed control at 125 g/ha: 90%
  pest or weed control at 62 g/ha: 40%
[5]; [15]
  pest or weed control at 16 g/ha: 95%
[5]; [16]
  pest or weed control at 31 g/ha: 95%
[5]; [17]
  pest or weed control at 62 g/ha: 98%
[5]; [18]
  pest or weed control at 125 g/ha: 95%
[5]; [19]
  pest or weed control at 16 g/ha: 65%
[5]; [20]
  pest or weed control at 31 g/ha: 90%
[5]; [21]
  pest or weed control at 62 g/ha: 98%
[5]; [22]
  pest or weed control at 125 g/ha: 98%
[6]; [15]
  pest or weed control at 16 g/ha: 10%
[6]; [16]
  pest or weed control at 31 g/ha: 25%
[6]; [17]
  pest or weed control at 62 g/ha: 50%
[6]; [18]
  pest or weed control at 125 g/ha: 70%
[6]; [19]
  pest or weed control at 16 g/ha: 0%
[6]; [20]
  pest or weed control at 31 g/ha: 5%
[6]; [21]
  pest or weed control at 62 g/ha: 30%
[6]; [22]
  pest or weed control at 125 g/ha: 75%
[7]; [15]
  pest or weed control at 16 g/ha: 55%
[7]; [16]
  pest or weed control at 31 g/ha: 50%
[7]; [17]
  pest or weed control at 62 g/ha: 65%
[7]; [18]
  pest or weed control at 125 g/ha: 70%
[7]; [19]
  pest or weed control at 16 g/ha: 0%
[7]; [20]
  pest or weed control at 31 g/ha: 35%
[7]; [21]
  pest or weed control at 62 g/ha: 30%
[7]; [22]
  pest or weed control at 125 g/ha: 25%
Kochia (Kochia scoparia); post-emergence, Postemergence
  pest or weed control at 16 g/ha: 98%
  pest or weed control at 31 g/ha: 100%
  pest or weed control at 125 g/ha: 100%
Kochia (Kochia scoparia); [14]
  pest or weed control at 62 g/ha: 95%
Kochia (Kochia scoparia); pre-emergence, Preemergence
  pest or weed control at 16 g/ha: 75%
  pest or weed control at 31 g/ha: 98%
  pest or weed control at 125 g/ha: 100%
  pest or weed control at 62 g/ha: 100%
[8]; 16 g ai/ha Preemergence
  pest or weed control at 16 g/ha: 10%
[8]; 31 g ai/ha Preemergence
  pest or weed control at 31 g/ha: 95%
[8]; 62 g ai/ha Preemergence
  pest or weed control at 62 g/ha: 98%
[8]; 125 g ai/ha Preemergence
  pest or weed control at 125 g/ha: 100%
[9]; 16 g ai/ha Preemergence
  pest or weed control at 16 g/ha: 90%
[9]; 31 g ai/ha Preemergence
  pest or weed control at 31 g/ha: 80%
[9]; 125 g ai/ha Preemergence
  pest or weed control at 125 g/ha: 98%
[9]; Preemergence
  pest or weed control at 62 g/ha: 98%
[10]; [15]
  pest or weed control at 16 g/ha: 30%
[10]; [16]
  pest or weed control at 31 g/ha: 50%
[10]; [17]
  pest or weed control at 62 g/ha: 60%
[10]; [18]
  pest or weed control at 125 g/ha: 70%
[10]; [19]
  pest or weed control at 16 g/ha: 0%
[10]; [20]
  pest or weed control at 31 g/ha: 70%
[10]; [22]
  pest or weed control at 125 g/ha: 80%
[10]; pre-emergence, Preemergence
  pest or weed control at 62 g/ha: 65%
[11]; 16 g ai/ha Preemergence
  pest or weed control at 16 g/ha: 0%
[11]; 31 g ai/ha Preemergence
  pest or weed control at 31 g/ha: 0%
[11]; 125 g ai/ha Preemergence
  pest or weed control at 125 g/ha: 25%
[11]; Preemergence
  pest or weed control at 62 g/ha: 0%
[12]; 16 g ai/ha Preemergence
  pest or weed control at 16 g/ha: 35%
[12]; 31 g ai/ha Preemergence
  pest or weed control at 31 g/ha: 98%
[12]; 125 g ai/ha Preemergence
  pest or weed control at 125 g/ha: 100%
[12]; Preemergence
  pest or weed control at 62 g/ha: 100%
[13]; 16 g ai/ha Preemergence
  pest or weed control at 16 g/ha: 0%
[13]; 31 g ai/ha Preemergence
  pest or weed control at 31 g/ha: 0%
[13]; 125 g ai/ha Preemergence
  pest or weed control at 125 g/ha: 0%
[13]; Preemergence
  pest or weed control at 62 g/ha: 0%
Horseweed; 16 g ai/ha Postemergence
  Plant response rating, Horseweed: 0
Horseweed; 31 g ai/ha Postemergence
  Plant response rating, Horseweed: 20
Horseweed; 62 g ai/ha Postemergence
  Plant response rating, Horseweed: 20
Horseweed; 125 g ai/ha Postemergence
  Plant response rating, Horseweed: 40
